Laboratory results reported in patent publication US10548993B2, “Metal-encapsulated carbonaceous dots” (UNIVERSITY OF GEORGIA RESEARCH FOUNDATION, INC., priority 2014, dated 2020).

What was measured:
U87MG cells = test: Cytotoxicity study, MTT assay with 2.5 mM Ca(II); type: cell-based, human; conditions: 24 h
Procedure: Gd@C-dots were also subjected to a cytotoxicity study with U87MG cells using standard MTT assays. The cells were first seeded in 96-well plates (1×10^4 cells per well). After 24 h, Gd@C-dots at different concentrations were added. Incubation was carried out for 24 h with or without 2.5 mM CaCl2. To assess the particles' stability against transmetallation, which is the major cause of toxicity for conventional Gd contrast agents (Corot et al., J. Magn. Reson. Imaging 1998, 8(3):695-702), 2.5 mM Ca(II) was added into the incubation medium.

[1] = comparison value for Gd-DTPA, literature references; cited from earlier work

In the case of CNC[C@H](O)[C@@H](O)[C@H](O)[C@H](O)CO.CNC[C@H](O)[C@@H](O)[C@H](O)[C@H](O)CO.O=C([O-])CN(CCN(CC(=O)[O-])CC(=O)O)CCN(CC(=O)[O-])CC(=O)O.[Gd+3] [Gd-DTPA, gadopentetic acid], the “IC50 (cell death)” value (U87MG cells) is given as 33.1 µg/mL and the r1 relaxivity [1] is given as 3.10 mM⁻¹ s⁻¹.
